# Where two headings read alike, the source gives them in different places.
# Legend:
# [1] = test system: B16V mouse melanoma cells; test: Cytotoxicity determination (MTT); assay type: cell-based; conditions: MTT viability, 48 h incubation, concentration at which 50% of the cells are vital
# Description: (§1) B16V mouse melanoma cells are disseminated in a 96-well microtitre plate in a concentration of 2×10^4 cells/well (B16V). After cultivation for 24 h at 37° C. and 5% CO2 in RPMI medium (B16V cells), enriched with 10% foetal calf serum, the medium is drawn off. Various concentrations of the test substances, dissolved in fresh medium enriched with 5% foetal calf serum, are added and incubated for a further 48 h. In parallel the cells are incubated with SDS as standard in concentrations of 0.01 mM, 0.1 mM, 1 mM and 10 mM. After incubation the medium is drawn off and the cells are incubated for 2 h with MTT (3-[4,5-dimethylthiazol-2-yl]2,5-diphenyl tetrazolium bromide). After extraction of the dye (MTT) with acetic acid SDS in DMSO (10 min), the absorption (A) is measured at 570 nm.
# (§2) The mean and standard deviation of the controls, blanks and samples are calculated. The mean of the blank is subtracted from the means of the controls and samples. The viability of the cells is stated as a percentage relative to the controls (100%):
# (§3) Viability (%)=[(Atest compound/Acontrol)×100]
# (§4) The IC50 (mean inhibitory concentration) indicates the test substance concentration at which 50% of the cells are vital.
# [2] = Cytotoxicity determination (MTT); assay type: cell-based, mouse; conditions: mouse, B16V mouse melanoma cells; Table 3, repeat of the Table 1 values; read-out: IC50 cytotox
# Description: as §1, §2, §3, §4
# [3] = test system: B16V mouse melanoma cells; test: Pigmenting effect (stimulation of pigmentation); assay type: cell-based
# Description: mouse melanoma cells are disseminated in a 96-well microtitre plate in a concentration of 5×10^3 cells/well. After cultivation for 24 h at 37° C. and 5% CO2 in RPMI medium, enriched with 10% foetal calf serum, various concentrations of the test substances and 10 nM α-MSH (α-melanocyte stimulating hormone) are added and incubated for a further 96 h. […] The stimulation of pigmentation in the presence of the test compounds was calculated using the following equation: Stimulation of pigmentation (%)=[(A test compound/A control)×100]-100 From the stimulation of pigmentation (%) in a series of dilutions of test compounds, the EC50 for each test compound was calculated. This is the concentration of a test compound at which pigmentation is stimulated by 50%.
# [4] = test system: tyrosinase; conditions: of 27 flavonoids tested; cited from earlier work
# [5] = test system: B16V melanoma cells; conditions: cited from earlier work
# [6] = test system: B16V melanoma cells; conditions: cited from earlier work; remark: listed apart in the source
# [7] = test system: glucose absorption; conditions: cited from earlier work
# [8] = test system: male rats; conditions: cited from earlier work
# [9] = test system: melanoma cells; conditions: cited from earlier work
# [10] = test system: melanoma cells; conditions: cited from earlier work; remark: listed apart in the source
# [11] = test system: melanin synthesis; conditions: cited from earlier work
# [12] = 96 h with 10 nM α-MSH, concentration at which pigmentation is stimulated by 50%, non-cytotoxic concentration range
# [13] = Table 3, repeat of the Table 2 values
# [14] = Mus musculus, 96 h, 96 h with 10 nM α-MSH, concentration at which pigmentation is stimulated by 50%, non-cytotoxic concentration range
# [15] = Mus musculus, read-out: EC50 pigm. effect, Table 3, repeat of the Table 2 values
compound,measurement,setting,value
O=c1cc(-c2ccc(O)cc2)oc2cc(O)cc(O)c12 [Apigenin],IC50,"[1]; Mus musculus, read-out: IC50",33 µM
same,IC50 at 48 h,[2],33 µM
same,EC50,[3]; [12],inactive
same,EC50 pigm. effect,[3]; [13],inactive
COc1ccc([C@@H]2CC(=O)c3c(O)cc(O)cc3O2)cc1O [Hesperetin],IC50,"[1]; Mus musculus, read-out: IC50",40 µM
same,IC50 at 48 h,[2],40 µM
same,EC50,[3]; [12],inactive
same,EC50 pigm. effect,[3]; [13],inactive
COc1ccc([C@@H]2CC(=O)c3c(O)cc(O[C@@H]4O[C@H](CO[C@@H]5O[C@@H](C)[C@H](O)[C@@H](O)[C@H]5O)[C@@H](O)[C@H](O)[C@H]4O)cc3O2)cc1O [Hesperidin],IC50,"[1]; Mus musculus, 48 h",> 1000 µM
same,IC50 at 48 h,[2],1500 µM
same,EC50,[3]; [14],< 2 µM
same,EC50,[3]; [15],1.5 µM
O=c1c(O)c(-c2ccc(O)cc2)oc2cc(O)cc(O)c12 [Kaempferol],tyrosinase inhibition,[4],tyrosinase inhibition
same,IC50,"[1]; Mus musculus, read-out: IC50",43 µM
same,IC50 at 48 h,[2],43 µM
same,EC50,[3]; [12],inactive
same,EC50 pigm. effect,[3]; [13],inactive
O=c1cc(-c2ccc(O)c(O)c2)oc2cc(O)cc(O)c12 [Luteolin],tyrosinase inhibition,[4],tyrosinase inhibition
same,IC50,"[1]; Mus musculus, read-out: IC50",37 µM
same,IC50 at 48 h,[2],37 µM
same,EC50,[3]; [12],inactive
same,EC50 pigm. effect,[3]; [13],inactive
O=C1C[C@@H](c2ccc(O)cc2)Oc2cc(O)cc(O)c21 [Naringenin],IC50,"[1]; Mus musculus, read-out: IC50",30 µM
same,IC50 at 48 h,[2],30 µM
same,EC50,[3]; [12],inactive
same,EC50 pigm. effect,[3]; [13],inactive
C[C@@H]1O[C@@H](O[C@H]2[C@H](Oc3cc(O)c4c(c3)OC(c3ccc(O)cc3)CC4=O)O[C@H](CO)[C@@H](O)[C@@H]2O)[C@H](O)[C@H](O)[C@H]1O (stereo partly drawn) [Naringin],IC50,[1],> 10000 µM
same,IC50 at 48 h,[2],> 10000 µM
same,EC50,[3]; [15],0.5 µM
COc1ccc(C2CC(=O)c3c(O)cc(OC4OC(CO)C(O)C(O)C4OC4OC(C)C(O)C(O)C4O)cc3O2)cc1O (stereo not drawn) [Neohesperidin],IC50,[1],> 4000 µM
same,IC50 at 48 h,[2],> 4000 µM
same,EC50,[3]; [14],< 2 µM
same,EC50,[3]; [15],1 µM
O=C(CCc1ccc(O)cc1)c1c(O)cc(O)cc1O[C@@H]1O[C@H](CO)[C@@H](O)[C@H](O)[C@H]1O [Phloridzin],cytotoxicity,[5],no cytotoxicity
same,melanin relative to the untreated control,[6]; 1 mM,+81%
same,inhibition of glucose absorption,[7],inhibitor of glucose absorption
same,toxicity to reproduction,[7],toxic to reproduction
O=c1c(O)c(-c2ccc(O)c(O)c2)oc2cc(O)cc(O)c12 [Quercetin],tyrosinase inhibition,[4],tyrosinase inhibition
same,maximum non-cytotoxic concentration,[5],0.003 mM
same,hepatotoxic effect,[8],hepatotoxic effect
same,melanin relative to the untreated control,[6]; maximum non-cytotoxic concentration of 0.003 mM,+38%
same,IC50,"[1]; Mus musculus, read-out: IC50",48 µM
same,IC50 at 48 h,[2],48 µM
same,EC50,"[3]; Mus musculus, 96 h with 10 nM α-MSH, concentration at which pigmentation is stimulated by 50%, non-cytotoxic concentration range, read-out: EC50",15 µM
same,EC50,"[3]; Mus musculus, Table 3, repeat of the Table 2 values, read-out: EC50 pigm. effect",15 µM
OC[C@H]1O[C@@H](Oc2cc3c(O)cc(O)cc3[o+]c2-c2ccc(O)c(O)c2)[C@H](O)[C@@H](O)[C@@H]1O [cyanidin-3-β-D-glucoside],effect on melanin synthesis,[9],stimulates melanin synthesis
O=c1c(-c2ccc(O)cc2)coc2cc(O)ccc12 [daidzein],effect on melanin production / melanogenesis,[10],no effect on melanogenesis
O=C(O[C@@H]1Cc2c(O)cc(O)cc2O[C@@H]1c1cc(O)c(O)c(O)c1)c1cc(O)c(O)c(O)c1 [epigallocatechin gallate],effect on melanin synthesis,[11],inhibition of melanin synthesis
O=c1c(-c2ccc(O)cc2)coc2cc(O)cc(O)c12 [genistein],effect on melanin production / melanogenesis,[10],increases melanin production
O=c1c(O)c(-c2ccc(O)cc2O)oc2cc(O)cc(O)c12 [morin],tyrosinase inhibition,[4],tyrosinase inhibition
O=c1c(O)c(-c2cc(O)c(O)c(O)c2)oc2cc(O)cc(O)c12 [myricetin],tyrosinase inhibition,[4],tyrosinase inhibition
O=C(CCc1ccc(O)cc1)c1c(O)cc(O)cc1O [phloretin],effect on melanogenesis,[6]; non-cytotoxic concentrations,ineffective
O=c1c(O)cc([C@H]2Oc3cc(O)cc(O)c3C[C@H]2O)cc2c([C@H]3Oc4cc(O)cc(O)c4C[C@H]3O)cc(O)c(O)c12 [theaflavin],tyrosinase inhibition,[4],tyrosinase inhibition
theaflavinmonogallate,tyrosinase inhibition,[4],tyrosinase inhibition

# Reference: patent publication US20080305054A1, “Use of Glycosylated Flavanones for the Browning of Skin or Hair” (SYMRISE GMBH & CO. KG, priority 2004, published 2008)
